Patent publication US20250082633A1, “COMPOUNDS AND METHODS FOR MODULATING SPLICING” (REMIX THERAPEUTICS INC., priority 2021, published 2025)
Read-outs that look alike come from different tables or passages of the source.

Assays:
Assay type in all cases: cell-based
[1] = system: HTT mRNA; test: RT-qPCR splicing assay, HTT canonical (CJ) and alternative (AJ) junction mRNA; conditions: Homo sapiens; for IC50: read-out: HTT CJ IC50; for AC50: increase in alternative junction mRNA, read-out: HTT AJ AC50
Description: (§1) Compounds described herein were used to modulate RNA transcript abundance in cells. The expression of a target mRNA was measured by detecting the formation of an exon-exon junction in the canonical transcript (CJ). A compound mediated exon-inclusion event was detected by observing an increase in formation of a new junction with an alternative exon (AJ). Real-time qPCR assays were used to detect these splicing switches and interrogate the potency of various compounds towards different target genes. A high-throughput real time quantitative PCR (RT-qPCR) assay was developed to measure these two isoforms of the mRNA (CJ and AJ) for exemplary genes, such as HTT, SMN2, and MYB, together with a control housekeeping gene, GAPDH or GUSB or PPIA, used for normalization. Briefly, the A673 or K562 cell line was treated with various compounds described herein (e.g., compounds of Formula (I)). After treatment, the levels of the HTT, MYB, or SMN2 mRNA targets were determined from each sample of cell lysate by cDNA synthesis followed by qPCR.
(§2) • Cells-to-CT 1-step kit: ThermoFisher A25602, Cells-to-CT lysis reagent: ThermoFisher 4391851C, TaqMan™ Fast Virus 1-Step Master Mix: ThermoFisher 4444436 • GAPDH: VIC-PL, ThermoFisher 4326317E (Assay: Hs99999905_m1)—used for K562/suspension cell lines • GUSB: VIC-PL, ThermoFisher 4326320E (Assay: Hs99999908_m1)—used for K562/suspension cell lines • PPIA: VIC-PL, ThermoFisher 4326316E (Assay: Hs99999904_m1)—used for A673/adherent cell lines
(§3) The A673 cell line was cultured in DMEM with 10% FBS. Cells were diluted with full growth media and plated in a 96-well plate (15,000 cells in 100 ul media per well). The plate was incubated at 37° C. with 5% CO2 for 24 hours to allow cells to adhere. An 11-point 3-fold serial dilution of the compounds was made in DMSO then diluted in media in an intermediate plate. Compounds were transferred from the intermediate plate to the cell plate with the top dose at a final concentration of 10 uM in the well. Final DMSO concentration was kept at or below 0.25%. The cell plate was returned to the incubator at 37° C. with 5% CO2 for an additional 24 hours.
(§4) The K562 cell line was cultured in IMDM with 10% FBS. For K562, cells were diluted with full growth media and plated in either a 96-well plate (50,000 cells in 50 uL media per well) or a 384-well plate (8,000-40,000 cells in 45 uL media per well). An 11-point 3-fold serial dilution of the compounds were made in DMSO then diluted in media in an intermediate plate. Compound was transferred from the intermediate plate to the cell plate with the top dose at a final concentration of 10 uM in the well. Final DMSO concentration was kept at or below 0.25%. Final volume was 100 uL for 96-well plate and 50 uL for 384-well plate. The cell plate was then placed in an incubator at 37° C. with 5% CO2 for 24 hours.
(§5) The cells were then gently washed with 50 uL-100 uL cold PBS before proceeding to addition of lysis buffer. 30 uL-50 μL of room temperature lysis buffer with DNAse I (and optionally RNAsin) was added to each well. Cells were shaken/mixed thoroughly at room temperature for 5-10 minutes for lysis to take place and then 3 uL-5 μL of room temperature stop solution was added and wells were shaken/mixed again. After 2-5 minutes, the cell lysate plate was transferred to ice for RT-qPCR reaction setup. The lysates could also be frozen at −80° C. for later use.
(§6) In some cases, a direct lysis buffer was used. An appropriate volume of 3× lysis buffer (10 mM Tris, 150 mM NaCl, 1.5%-2.5% Igepal and 0.1-1 U/uL RNAsin, pH 7.4) was directly added to either K562 or A673 cells in media and mixed by pipetting 3 times. The plates were then incubated at room temperature with shaking/rocking for 20-50 minutes to allow for lysis to take place. After this time, the cell lysate plate was transferred to ice to set up for the RT-qPCR reactions. The lysates could also be frozen at −80° C. for later use. […]

[2] = system: MYB mRNA; test: RT-qPCR splicing assay, MYB canonical (CJ) and alternative (AJ) junction mRNA; conditions: Homo sapiens; for IC50: read-out: MYB CJ IC50; for AC50: increase in alternative junction mRNA, read-out: MYB AJ AC50
Description: as §1, §2, §3, §4, §5, §6

[3] = system: K562 cells; test: Cell Titer Glo 2.0 cell viability assay; conditions: Homo sapiens, 500 cells/well, 72 hours
Description: Compounds described herein were screened for toxicity in K562 (human chronic myelogenous leukemia) and SH-SY5Y (human neuroblastoma) cells using a Cell Titer Glo 2.0 assay. • Promega CellTiter-Glo® 2.0 Cell Viability Assay (cat #G9241) • Corning 384-well TC-treated microplates (cat #3570) Cells were plated at 500 cells/well (K562 cells) in 45 μL of IMDM supplemented with 10% FBS in a 384-well opaque plate. Wells containing only medium were used as a blank control. Test compounds (e.g., compounds of Formula (I), (II), or (III)) were first serially diluted in DMSO then diluted 1:100 with IMDM+10% FBS. The final concentration of DMSO was 0.1% in each well. The cells were incubated for 72 hours at 37° C. and 5% CO2 before assaying with Cell Titer Glo 2.0 reagent.

[4] = system: Target C; test: RT-qPCR splicing assay, gene panel, Target C canonical junction (CJ) mRNA; conditions: Homo sapiens; decrease in CJ mRNA levels; larger panel of genes; Table 3; read-out: Target C CJ IC50
Description: as §1, §3, §4, §5
(§7) In some cases, a direct lysis buffer was used. An appropriate volume of 3× lysis buffer (10 mM Tris, 150 mM NaCl, 1.5%-2.5% Igepal and 0.1-1 U/uL RNAsin, pH 7.4) was directly added to either K562 or A673 cells in media and mixed by pipetting 3 times. The plates were then incubated at room temperature with shaking/rocking for 20-50 minutes to allow for lysis to take place. After this time, the cell lysate plate was transferred to ice to set up for the RT-qPCR reactions. The lysates could also be frozen at −80° C. for later use.
(§8) To set up 10 uL RT-qPCR reactions, cell lysates were transferred to 384-well qPCR plates containing the master mix according to the table below. The plates were sealed, gently vortexed, and spun down before the run. The volumes were adjusted accordingly in some instances where the reaction was carried in 20 μL. The table below summarizes the components of the RT-qPCR reactions:
(§9) The RT-qPCR reaction was performed using a QuantStudio (ThermoFisher) under the following fast cycling conditions. […]

[5] = system: SMN2 mRNA; test: RT-qPCR splicing assay, gene panel, SMN2 canonical junction (CJ) mRNA; conditions: Homo sapiens; decrease in CJ mRNA levels; larger panel of genes; Table 3; read-out: SMN2 CJ IC50
Description: as §1, §3, §4, §5, §7, §8, §9

[6] = decrease in CJ mRNA levels, larger panel of genes, Table 3
[7] = decrease in canonical junction mRNA, A673 or K562 cells, 24 hours treatment, Table 2
[8] = A673 or K562 cells, 24 hours treatment, Table 2

| Compound | IC50 [1, 6] [nM] | IC50 [1, 7] [nM] | IC50 [2, 6] [nM] | IC50 [2, 7] [nM] | GI50 [3] [nM] | IC50 [4] [nM] | IC50 [5] [nM] | AC50 [1, 8] [nM] | AC50 [2, 8] [nM] |
| --- | --- | --- | --- | --- | --- | --- | --- | --- | --- |
| Cn1cc2cc(-c3cc(F)c4nn(C5CCNCC5)nc4c3)cc(F)c2n1 [Compound 103, 4-fluoro-6-(7-fluoro-2-methyl-indazol-5-yl)-2-(4-piperidyl) benzotriazole] | 100 to 1000 | 100 to 1000 | 1000 to 10000 | 1000 to 10000 | 1000 to 10000 | 1000 to 10000 | 100 to 1000 | 100 to 1000 | 1000 to 10000 |
| CCN1CCC(n2cc3cc(-c4cc(F)c5nn(C)cc5c4)cc(F)c3n2)CC1 [Compound 104, 2-(1-ethyl-4-piperidyl)-7-fluoro-5-(7-fluoro-2-methyl-indazol-5-yl)indazole] | 100 to 1000 | 100 to 1000 | 1000 to 10000 | 1000 to 10000 | 1000 to 10000 | 1000 to 10000 | < 100 | 100 to 1000 | 1000 to 10000 |
| Cn1cc2cc(-c3cc(F)c4nn(C5CCNC6(CC6)C5)cc4c3)cc(F)c2n1 (stereo not drawn) [Compound 108, 2-(4-azaspiro[2.5]octan-7-yl)-7-fluoro-5-(7-fluoro-2-methyl-indazol-5-yl)indazole] | 100 to 1000 | 100 to 1000 | 100 to 1000 | 100 to 1000 | 100 to 1000 | 1000 to 10000 | 100 to 1000 | 100 to 1000 | 1000 to 10000 |

Further lines, with some results ahead:

| IC50 [1, 6] [nM] | IC50 [1, 7] [nM] | IC50 [2, 6] [nM] | IC50 [2, 7] [nM] | GI50 [3] [nM] | IC50 [4] [nM] | IC50 [5] [nM] | Compound | AC50 [1, 8] [nM] | AC50 [2, 8] [nM] |
| --- | --- | --- | --- | --- | --- | --- | --- | --- | --- |
| 100 to 1000 | 100 to 1000 | 100 to 1000 | 100 to 1000 | 100 to 1000 | 100 to 1000 | < 100 | Cn1cc2cc(-c3ccc4nn(C5CCNCC5)cc4c3)cc(F)c2n1 [Compound 105, 7-fluoro-2-methyl-5-[2-(4-piperidyl)indazol-5-yl]indazole] | 100 to 1000 | 1000 to 10000 |
| 100 to 1000 | 100 to 1000 | 100 to 1000 | 100 to 1000 | 100 to 1000 | 100 to 1000 | < 100 | Cn1cc2cc(-c3ccc4nn(C5CCNCC5)cc4n3)c(O)c(F)c2n1 [Compound 107, 7-fluoro-2-methyl-5-[2-(4-piperidyl)pyrazolo [4,3-b]pyridin-5-yl]indazol-6-ol] | 100 to 1000 | 100 to 1000 |
| < 100 | < 100 | 100 to 1000 | 100 to 1000 | 100 to 1000 | 100 to 1000 | < 100 | Cc1c(O)c(-c2ccc3nn(C4CCNCC4)cc3n2)cc2cn(C)nc12 [Compound 109, 2,7-dimethyl-5-[2-(4-piperidyl)pyrazolo[4,3-b]pyridin-5-yl]indazol-6-ol] | 100 to 1000 | 100 to 1000 |
